Paper PMC6199744, “Development of Chemical Proteomics for the Folateome and Analysis of the Kinetoplastid Folateome” (ACS Infectious Diseases, 2018)
Like-named read-outs stand apart in the source and are kept apart here.

Key:
Format in all cases: binding
[1] = target: T1, HeLa cell extract proteins (Homo sapiens, UniProt O43592); conditions: HeLa; protein XPOT
T1 construct: endogenous in cells; host or cells: HeLa cell extract
T1 sequence (O43592 1-962): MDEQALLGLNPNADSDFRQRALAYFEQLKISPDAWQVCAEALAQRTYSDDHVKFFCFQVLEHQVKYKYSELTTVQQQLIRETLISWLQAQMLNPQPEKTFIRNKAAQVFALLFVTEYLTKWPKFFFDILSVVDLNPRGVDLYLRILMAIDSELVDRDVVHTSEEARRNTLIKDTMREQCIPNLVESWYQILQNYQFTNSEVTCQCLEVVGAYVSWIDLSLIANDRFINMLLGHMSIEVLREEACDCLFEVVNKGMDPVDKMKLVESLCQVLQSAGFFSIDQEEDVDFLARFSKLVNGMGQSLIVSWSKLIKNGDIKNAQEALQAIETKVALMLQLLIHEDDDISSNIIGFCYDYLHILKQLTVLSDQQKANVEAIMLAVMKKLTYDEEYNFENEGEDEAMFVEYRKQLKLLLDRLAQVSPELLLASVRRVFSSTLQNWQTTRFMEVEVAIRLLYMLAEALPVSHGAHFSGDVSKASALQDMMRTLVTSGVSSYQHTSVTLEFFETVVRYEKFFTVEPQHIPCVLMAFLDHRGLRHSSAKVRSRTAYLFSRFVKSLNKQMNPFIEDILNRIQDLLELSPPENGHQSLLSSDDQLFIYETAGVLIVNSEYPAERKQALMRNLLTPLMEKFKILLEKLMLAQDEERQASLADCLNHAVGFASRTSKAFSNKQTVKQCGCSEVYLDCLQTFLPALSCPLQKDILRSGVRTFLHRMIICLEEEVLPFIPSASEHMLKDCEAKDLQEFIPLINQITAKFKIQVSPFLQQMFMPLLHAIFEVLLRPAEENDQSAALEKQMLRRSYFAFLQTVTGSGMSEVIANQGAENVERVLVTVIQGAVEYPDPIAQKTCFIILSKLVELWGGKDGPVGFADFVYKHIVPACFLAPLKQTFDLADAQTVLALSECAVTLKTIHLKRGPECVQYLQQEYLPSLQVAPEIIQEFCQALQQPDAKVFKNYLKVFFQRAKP

[2] = target: T2, HeLa cell extract proteins (Homo sapiens, UniProt P00338); conditions: HeLa; protein LDHA
T2 construct: endogenous in cells; host or cells: HeLa cell extract

[3] = target: T3, HeLa cell extract proteins (Homo sapiens, UniProt P07814); conditions: HeLa; protein EPRS (BI[…]-TRNA SYNTHETASE)
T3 construct: endogenous in cells; host or cells: HeLa cell extract
T3 sequence (P07814 whole entry): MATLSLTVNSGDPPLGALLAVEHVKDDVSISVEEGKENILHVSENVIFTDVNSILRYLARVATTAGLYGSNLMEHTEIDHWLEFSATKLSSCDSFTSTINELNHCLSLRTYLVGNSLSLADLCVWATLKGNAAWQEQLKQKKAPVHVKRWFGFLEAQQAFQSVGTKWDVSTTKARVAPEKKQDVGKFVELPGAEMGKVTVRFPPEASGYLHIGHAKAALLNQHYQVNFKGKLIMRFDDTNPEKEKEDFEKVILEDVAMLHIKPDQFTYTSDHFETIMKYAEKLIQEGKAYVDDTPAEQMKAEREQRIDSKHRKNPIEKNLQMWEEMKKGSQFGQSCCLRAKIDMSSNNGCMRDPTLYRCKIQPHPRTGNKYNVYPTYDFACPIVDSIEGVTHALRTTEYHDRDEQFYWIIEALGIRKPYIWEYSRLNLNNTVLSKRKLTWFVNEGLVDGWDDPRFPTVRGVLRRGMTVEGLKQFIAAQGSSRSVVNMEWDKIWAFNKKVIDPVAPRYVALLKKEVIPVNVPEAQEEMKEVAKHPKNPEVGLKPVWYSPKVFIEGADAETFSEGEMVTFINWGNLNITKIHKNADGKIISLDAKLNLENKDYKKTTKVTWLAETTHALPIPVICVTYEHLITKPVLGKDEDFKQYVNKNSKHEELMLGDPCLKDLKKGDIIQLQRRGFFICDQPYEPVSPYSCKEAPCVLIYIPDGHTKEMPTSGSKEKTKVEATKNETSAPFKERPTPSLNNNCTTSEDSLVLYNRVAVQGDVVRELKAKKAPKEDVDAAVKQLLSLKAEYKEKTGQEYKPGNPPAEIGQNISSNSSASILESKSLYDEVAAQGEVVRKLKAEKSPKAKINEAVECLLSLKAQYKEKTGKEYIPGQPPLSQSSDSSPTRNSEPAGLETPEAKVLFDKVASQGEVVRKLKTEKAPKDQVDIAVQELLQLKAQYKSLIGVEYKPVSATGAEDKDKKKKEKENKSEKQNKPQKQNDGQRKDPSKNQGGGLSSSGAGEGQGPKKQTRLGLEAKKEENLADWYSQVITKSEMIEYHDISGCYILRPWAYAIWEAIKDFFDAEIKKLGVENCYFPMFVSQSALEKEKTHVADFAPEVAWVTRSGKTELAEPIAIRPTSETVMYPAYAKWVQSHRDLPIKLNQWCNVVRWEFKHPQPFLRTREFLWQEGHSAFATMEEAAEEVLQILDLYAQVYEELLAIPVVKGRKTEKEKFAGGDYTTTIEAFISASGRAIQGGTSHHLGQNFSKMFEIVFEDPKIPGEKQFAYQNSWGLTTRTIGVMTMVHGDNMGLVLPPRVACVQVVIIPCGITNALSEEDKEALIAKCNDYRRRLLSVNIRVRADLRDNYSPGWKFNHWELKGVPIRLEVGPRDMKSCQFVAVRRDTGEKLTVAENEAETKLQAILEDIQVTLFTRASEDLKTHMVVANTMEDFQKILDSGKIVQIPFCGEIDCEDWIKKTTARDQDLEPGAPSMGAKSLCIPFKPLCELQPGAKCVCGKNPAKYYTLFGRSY

[4] = target: T4, HeLa cell extract proteins (Homo sapiens, UniProt P09972); conditions: HeLa; protein ALDOC
T4 construct: endogenous in cells; host or cells: HeLa cell extract
T4 sequence (P09972 1-364): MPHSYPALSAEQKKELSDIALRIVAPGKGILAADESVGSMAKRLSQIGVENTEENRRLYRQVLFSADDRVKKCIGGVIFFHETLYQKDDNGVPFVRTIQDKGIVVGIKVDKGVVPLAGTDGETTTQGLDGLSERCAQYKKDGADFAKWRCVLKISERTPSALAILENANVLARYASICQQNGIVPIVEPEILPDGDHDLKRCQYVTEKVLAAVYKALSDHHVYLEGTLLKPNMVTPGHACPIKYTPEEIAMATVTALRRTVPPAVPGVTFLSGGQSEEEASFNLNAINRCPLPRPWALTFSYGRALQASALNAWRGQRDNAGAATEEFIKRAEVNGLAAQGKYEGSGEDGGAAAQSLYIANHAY

[5] = target: T5, HeLa cell extract proteins (Homo sapiens, UniProt P26038); conditions: HeLa; protein MSN
T5 construct: endogenous in cells; host or cells: HeLa cell extract
T5 sequence (P26038 whole entry): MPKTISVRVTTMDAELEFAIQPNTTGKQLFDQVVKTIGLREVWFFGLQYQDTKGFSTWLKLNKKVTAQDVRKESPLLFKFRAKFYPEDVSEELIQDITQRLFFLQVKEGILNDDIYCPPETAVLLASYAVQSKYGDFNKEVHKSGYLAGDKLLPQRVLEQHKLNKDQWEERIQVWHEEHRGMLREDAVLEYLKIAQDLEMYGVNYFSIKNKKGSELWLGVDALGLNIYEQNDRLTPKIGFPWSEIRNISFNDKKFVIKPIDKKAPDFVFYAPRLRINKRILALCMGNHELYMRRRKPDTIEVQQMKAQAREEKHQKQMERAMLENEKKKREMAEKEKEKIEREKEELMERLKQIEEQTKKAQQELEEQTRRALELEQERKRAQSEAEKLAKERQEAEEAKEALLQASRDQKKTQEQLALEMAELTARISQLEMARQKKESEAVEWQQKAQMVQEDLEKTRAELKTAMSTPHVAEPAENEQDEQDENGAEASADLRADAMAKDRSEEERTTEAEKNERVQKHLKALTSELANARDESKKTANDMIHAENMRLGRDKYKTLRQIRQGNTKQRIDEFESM

[6] = target: T6, HeLa cell extract proteins (Homo sapiens, UniProt P40227); conditions: HeLa; protein CCT6A
T6 construct: endogenous in cells; host or cells: HeLa cell extract

[7] = target: T7, HeLa cell extract proteins (Homo sapiens, UniProt P61019); conditions: HeLa; protein RAB2A
T7 construct: endogenous in cells; host or cells: HeLa cell extract
T7 sequence (P61019 whole entry): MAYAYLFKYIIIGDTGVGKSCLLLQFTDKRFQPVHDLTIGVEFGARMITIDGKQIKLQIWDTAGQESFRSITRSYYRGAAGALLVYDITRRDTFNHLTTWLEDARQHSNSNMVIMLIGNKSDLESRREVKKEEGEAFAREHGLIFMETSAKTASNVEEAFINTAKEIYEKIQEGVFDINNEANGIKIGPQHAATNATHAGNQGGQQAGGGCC

[8] = target: T8, HeLa cell extract proteins (Homo sapiens, UniProt P61604); conditions: HeLa; protein HSPE1
T8 construct: endogenous in cells; host or cells: HeLa cell extract
T8 sequence (P61604 whole entry): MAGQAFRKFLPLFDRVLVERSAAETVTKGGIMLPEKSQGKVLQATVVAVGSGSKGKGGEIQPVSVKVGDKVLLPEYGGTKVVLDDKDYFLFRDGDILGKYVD

[9] = target: T9, HeLa cell extract proteins (Homo sapiens, UniProt P62333); conditions: protein PSMC6; HeLa
T9 construct: endogenous in cells; host or cells: HeLa cell extract
T9 sequence (P62333 whole entry): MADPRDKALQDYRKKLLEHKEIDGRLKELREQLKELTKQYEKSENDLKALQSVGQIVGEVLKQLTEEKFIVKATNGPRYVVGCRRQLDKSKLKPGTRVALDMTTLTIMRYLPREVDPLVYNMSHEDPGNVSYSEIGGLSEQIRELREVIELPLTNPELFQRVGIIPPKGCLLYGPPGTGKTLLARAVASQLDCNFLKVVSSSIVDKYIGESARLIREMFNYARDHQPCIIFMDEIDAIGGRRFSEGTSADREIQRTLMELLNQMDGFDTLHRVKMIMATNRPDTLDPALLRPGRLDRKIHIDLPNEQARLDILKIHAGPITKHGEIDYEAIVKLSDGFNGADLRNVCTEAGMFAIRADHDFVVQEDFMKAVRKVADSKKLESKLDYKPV

[10] = target: T10, HeLa cell extract proteins (Homo sapiens, UniProt P81605); conditions: protein DCD; HeLa
T10 construct: endogenous in cells; host or cells: HeLa cell extract
T10 sequence (P81605 20-110): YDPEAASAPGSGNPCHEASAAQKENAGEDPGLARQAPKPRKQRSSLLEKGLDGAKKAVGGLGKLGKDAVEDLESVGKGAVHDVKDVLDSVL

[11] = target: T11, HeLa cell extract proteins (Homo sapiens, UniProt Q15293); conditions: HeLa; protein RCN1
T11 construct: endogenous in cells; host or cells: HeLa cell extract
T11 sequence (Q15293 30-331): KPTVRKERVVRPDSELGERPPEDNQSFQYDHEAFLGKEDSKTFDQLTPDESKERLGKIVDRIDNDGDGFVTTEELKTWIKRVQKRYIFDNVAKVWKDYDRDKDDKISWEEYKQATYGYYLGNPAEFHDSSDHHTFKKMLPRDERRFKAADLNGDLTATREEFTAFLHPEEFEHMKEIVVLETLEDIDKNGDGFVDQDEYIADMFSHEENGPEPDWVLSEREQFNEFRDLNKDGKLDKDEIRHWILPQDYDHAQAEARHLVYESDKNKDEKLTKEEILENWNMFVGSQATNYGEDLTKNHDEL

[12] = target: T12, HeLa cell extract proteins (Homo sapiens, UniProt Q99570); conditions: HeLa; protein PIK3R4
T12 construct: endogenous in cells; host or cells: HeLa cell extract
T12 sequence (Q99570 whole entry): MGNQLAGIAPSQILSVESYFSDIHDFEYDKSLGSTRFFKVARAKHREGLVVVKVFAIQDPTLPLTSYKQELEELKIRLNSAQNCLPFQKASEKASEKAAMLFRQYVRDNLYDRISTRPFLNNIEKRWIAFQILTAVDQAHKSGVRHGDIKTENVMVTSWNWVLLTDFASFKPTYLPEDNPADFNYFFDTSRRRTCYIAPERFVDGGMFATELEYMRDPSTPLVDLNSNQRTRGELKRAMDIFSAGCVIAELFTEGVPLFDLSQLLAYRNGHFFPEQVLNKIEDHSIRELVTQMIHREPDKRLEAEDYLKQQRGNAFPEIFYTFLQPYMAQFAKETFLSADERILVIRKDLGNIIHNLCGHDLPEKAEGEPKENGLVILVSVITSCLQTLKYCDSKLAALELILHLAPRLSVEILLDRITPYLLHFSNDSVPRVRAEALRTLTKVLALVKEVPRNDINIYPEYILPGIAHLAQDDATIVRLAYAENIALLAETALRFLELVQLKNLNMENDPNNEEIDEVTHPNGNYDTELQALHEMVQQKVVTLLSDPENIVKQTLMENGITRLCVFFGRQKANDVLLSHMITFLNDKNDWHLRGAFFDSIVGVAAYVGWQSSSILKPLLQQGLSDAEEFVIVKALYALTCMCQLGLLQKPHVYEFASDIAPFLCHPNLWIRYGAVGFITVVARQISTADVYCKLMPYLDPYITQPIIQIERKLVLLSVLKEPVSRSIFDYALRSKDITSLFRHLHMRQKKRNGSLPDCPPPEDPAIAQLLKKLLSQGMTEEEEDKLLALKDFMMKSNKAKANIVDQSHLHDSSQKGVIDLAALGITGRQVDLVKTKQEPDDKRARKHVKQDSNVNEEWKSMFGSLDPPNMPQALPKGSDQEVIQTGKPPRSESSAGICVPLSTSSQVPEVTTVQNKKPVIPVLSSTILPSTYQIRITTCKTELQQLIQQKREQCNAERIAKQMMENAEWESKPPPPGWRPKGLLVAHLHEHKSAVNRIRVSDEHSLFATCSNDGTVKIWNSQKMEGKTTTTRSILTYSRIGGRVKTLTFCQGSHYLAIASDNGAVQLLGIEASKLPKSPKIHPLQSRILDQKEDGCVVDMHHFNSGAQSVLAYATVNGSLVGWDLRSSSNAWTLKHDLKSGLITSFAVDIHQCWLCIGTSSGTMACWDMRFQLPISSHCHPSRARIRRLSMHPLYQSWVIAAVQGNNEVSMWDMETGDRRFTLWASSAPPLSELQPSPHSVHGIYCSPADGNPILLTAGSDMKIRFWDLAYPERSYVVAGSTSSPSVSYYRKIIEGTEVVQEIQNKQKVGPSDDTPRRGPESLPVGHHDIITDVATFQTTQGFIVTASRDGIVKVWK

[13] = target: T13, HeLa cell extract proteins (Homo sapiens, UniProt Q9UI12); conditions: HeLa; protein ATP6V1H
T13 construct: endogenous in cells; host or cells: HeLa cell extract
T13 sequence (Q9UI12 whole entry): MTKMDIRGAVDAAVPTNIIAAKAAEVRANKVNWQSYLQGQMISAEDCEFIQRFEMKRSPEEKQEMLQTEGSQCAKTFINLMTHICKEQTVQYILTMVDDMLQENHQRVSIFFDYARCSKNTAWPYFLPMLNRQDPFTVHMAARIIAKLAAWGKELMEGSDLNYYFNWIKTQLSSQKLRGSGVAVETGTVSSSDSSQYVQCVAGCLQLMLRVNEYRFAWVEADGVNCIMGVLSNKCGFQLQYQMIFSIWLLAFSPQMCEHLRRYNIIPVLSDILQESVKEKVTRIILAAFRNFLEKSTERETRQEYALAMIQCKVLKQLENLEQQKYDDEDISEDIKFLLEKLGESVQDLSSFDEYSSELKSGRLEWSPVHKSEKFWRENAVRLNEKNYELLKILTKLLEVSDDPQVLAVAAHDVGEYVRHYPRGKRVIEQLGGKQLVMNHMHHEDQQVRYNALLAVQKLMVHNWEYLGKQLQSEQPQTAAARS

[14] = system: HeLa cell extract proteins; conditions: HeLa

Compound: NCCCNc1ccc(C(=O)NC(CCC(=O)O)C(=O)O)cc1 (centres unmarked) [compound 7]
- fold changes relative to vehicle control [1]: 0.99
- fold changes relative to vehicle control [2]: 0.95
- fold changes relative to vehicle control [3]: 1.09
- fold changes relative to vehicle control [4]: 1.12
- fold changes relative to vehicle control [5]: 0.81
- fold changes relative to vehicle control [6]: 1.31
- fold changes relative to vehicle control [7]: 0.94
- fold changes relative to vehicle control [8]: 1.15
- fold changes relative to vehicle control [9]: 0.96
- fold changes relative to vehicle control [10]: 1.23
- fold changes relative to vehicle control [11]: 1.02
- fold changes relative to vehicle control [12]: 1.08
- fold changes relative to vehicle control [13]: 1.01
- fold changes relative to vehicle control ([14]; captured protein EIF1AP1): 0.98
- fold changes relative to vehicle control ([14]; captured protein LOC442497): 1.05
- fold changes relative to vehicle control ([14]; protein ABCB7 (ISOFORM 2 OF ATP-BINDING CASSETTE SUB-FAMILY B MEMBER 7, MIT[…])): 1.23
- fold changes relative to vehicle control ([14]; protein ASAH1 (N-ACYLSPHINGOSINE AMIDOHYDROLASE (ACID CERAMIDASE) 1 ISOFORM B)): 1.18
- fold changes relative to vehicle control ([14]; protein GTPBP3 (ISOFORM 2 OF TRNA MODIFICATION GTPASE GTPBP3, MITOCHONDRIAL PRECURSOR)): 1
- fold changes relative to vehicle control ([14]; protein LOC654188): 0.99
- fold changes relative to vehicle control ([14]; protein MYL6 (ISOFORM SMOOTH MUSCLE OF MYOSIN LIGHT POLYPEPTIDE 6)): 1.14
- fold changes relative to vehicle control ([14]; protein NME1-NME2): 0.91
- fold changes relative to vehicle control ([14]; protein PSMA1 (ISOFORM LONG OF […] ALPHA TYPE 1)): 1.02
- fold changes relative to vehicle control ([14]; protein PSME1 (PROTEASOME ACTIVATOR SUBUNIT 1 ISOFORM 2)): 0.98
- fold changes relative to vehicle control ([14]; protein RPLP0-LIKE): 0.93
- fold changes relative to vehicle control ([14]; protein HIST2H2BA): 0.9
- fold changes relative to vehicle control ([14]; protein LOC646960): 1.02
